Measured values from paper doi:10.1101/2025.02.18.638599v1 (biorxiv, 2025).

What was measured:
[1] = biological target: T1, TolC (Escherichia coli, UniProt P02930); test: label-free microscale thermophoresis; type: binding
T1 sequence (P02930 23-493): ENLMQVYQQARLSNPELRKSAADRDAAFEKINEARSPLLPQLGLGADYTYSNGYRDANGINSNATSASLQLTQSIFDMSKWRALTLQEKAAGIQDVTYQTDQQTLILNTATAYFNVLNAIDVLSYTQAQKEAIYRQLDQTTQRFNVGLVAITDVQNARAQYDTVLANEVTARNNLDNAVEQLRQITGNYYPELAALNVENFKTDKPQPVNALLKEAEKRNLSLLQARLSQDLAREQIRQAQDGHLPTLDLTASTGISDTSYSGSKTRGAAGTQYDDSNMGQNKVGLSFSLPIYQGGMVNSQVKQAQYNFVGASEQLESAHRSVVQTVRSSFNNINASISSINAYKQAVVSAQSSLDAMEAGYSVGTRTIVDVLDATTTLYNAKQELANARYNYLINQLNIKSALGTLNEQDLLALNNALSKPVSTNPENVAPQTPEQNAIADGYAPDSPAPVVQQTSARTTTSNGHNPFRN

[2] = biological target: T2, AcrB (Escherichia coli, UniProt P31224); test: label-free microscale thermophoresis; type: binding
T2 sequence (P31224 1-1049): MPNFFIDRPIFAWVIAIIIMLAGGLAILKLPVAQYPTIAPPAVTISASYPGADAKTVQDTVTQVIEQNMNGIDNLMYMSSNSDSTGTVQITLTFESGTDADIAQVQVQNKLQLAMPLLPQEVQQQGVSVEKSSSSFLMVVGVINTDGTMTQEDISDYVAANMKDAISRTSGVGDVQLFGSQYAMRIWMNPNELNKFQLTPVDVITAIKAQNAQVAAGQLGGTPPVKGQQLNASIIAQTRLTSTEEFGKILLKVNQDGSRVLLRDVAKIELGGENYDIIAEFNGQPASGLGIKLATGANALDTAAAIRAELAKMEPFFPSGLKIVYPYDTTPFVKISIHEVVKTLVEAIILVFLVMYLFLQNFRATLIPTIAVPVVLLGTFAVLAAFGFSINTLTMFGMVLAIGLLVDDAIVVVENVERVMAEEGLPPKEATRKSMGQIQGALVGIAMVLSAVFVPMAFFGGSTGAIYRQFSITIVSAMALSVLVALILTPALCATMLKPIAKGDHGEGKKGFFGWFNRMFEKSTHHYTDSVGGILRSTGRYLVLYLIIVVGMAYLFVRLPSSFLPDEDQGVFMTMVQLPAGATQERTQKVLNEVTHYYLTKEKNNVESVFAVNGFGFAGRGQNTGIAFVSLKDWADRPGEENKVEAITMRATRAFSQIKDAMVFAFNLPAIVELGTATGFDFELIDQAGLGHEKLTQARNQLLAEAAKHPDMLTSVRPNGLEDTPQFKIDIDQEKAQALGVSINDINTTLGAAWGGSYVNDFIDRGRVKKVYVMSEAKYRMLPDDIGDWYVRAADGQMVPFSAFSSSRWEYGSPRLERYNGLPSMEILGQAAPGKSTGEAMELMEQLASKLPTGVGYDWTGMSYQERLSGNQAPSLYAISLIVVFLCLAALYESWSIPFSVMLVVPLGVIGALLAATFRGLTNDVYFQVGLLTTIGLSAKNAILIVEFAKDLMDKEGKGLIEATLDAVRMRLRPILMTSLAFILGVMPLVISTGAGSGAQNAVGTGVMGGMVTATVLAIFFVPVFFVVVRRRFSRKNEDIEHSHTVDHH

[3] = test system: E. coli BW25113; test: microbe, parasite or virus in culture; settings: Escherichia coli, BW25113, 24 h, read-out: MIC, E. coli BW25113
[4] = test system: E. coli JW5503; test: microbe, parasite or virus in culture; settings: Escherichia coli, JW5503, 24 h, read-out: MIC, E. coli JW5503
[5] = test system: E. coli BW25113; set-up: species or system Escherichia coli; settings: compound alone; 24 h; inhibitor

Row | Compound | Kd [1] [µM] | Kd [2] [µM] | MIC [3] [µM] | MIC [4] [µM] | MIC, E. coli BW25113 [5] [µM]
1 | CNC(=O)c1ccccc1Nc1nc(Nc2ccc3c(c2OC)CCC[C@H](N2CCN(CCO)CC2)C3)ncc1Cl [CEP-37440] | 282 | 198 | > 125 | > 75 | –
2 | COc1c(N)ccc2c1CCCC(N1CCN(CCO)CC1)C2 (centres unmarked) [LP-115] | – | – | – | – | >125
